Literature values as cited in patent publication US20120141611A1, “METHODS AND COMPOSITIONS USING ERGOTHIONEINE TO TREAT A VARIETY OF HEALTH RELATED FACTORS” (Oxis International Inc., priority 2010, published 2012).
≈ marks a conversion by molar mass, not a printed value. Where “and” joins values, the source holds several entries; their conditions need not be identical. Equal values may be shown once. Read-outs that look alike come from different tables or passages of the source.

Tests used:
[1] = Dog, cited from earlier work
[2] = cited from earlier work
[3] = test system: hepatic microsomes; conditions: NADPH or ascorbic acid challenge; cited from earlier work
[4] = molecular target: T1, glutathione reductase (Mus musculus, UniProt P47791); conditions: mouse liver cytosol fractions; cited from earlier work
T1 construct: glutathione peroxidase and glutathione reductase activities in mouse liver cytosol fractions; from tissue; host or cells: mouse liver cytosol fractions (result quoted from the literature)
T1 sequence (P47791 27-500): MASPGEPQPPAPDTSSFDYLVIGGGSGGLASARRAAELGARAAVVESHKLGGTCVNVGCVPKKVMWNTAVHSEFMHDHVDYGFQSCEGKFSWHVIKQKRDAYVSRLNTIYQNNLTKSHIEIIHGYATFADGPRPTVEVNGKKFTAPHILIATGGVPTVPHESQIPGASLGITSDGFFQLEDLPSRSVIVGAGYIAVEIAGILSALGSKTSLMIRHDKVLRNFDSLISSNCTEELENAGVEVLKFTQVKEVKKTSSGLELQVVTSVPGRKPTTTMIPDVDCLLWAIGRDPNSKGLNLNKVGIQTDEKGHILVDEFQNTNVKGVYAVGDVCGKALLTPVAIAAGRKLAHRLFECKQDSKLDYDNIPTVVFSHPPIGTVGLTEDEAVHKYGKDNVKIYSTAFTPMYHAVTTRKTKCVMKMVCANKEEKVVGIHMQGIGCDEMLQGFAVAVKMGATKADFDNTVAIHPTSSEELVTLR

[5] = molecular target: Cu/Zn SOD (Mus musculus, UniProt P08228); conditions: 12.5 mM; cited from earlier work
Cu/Zn SOD, sequence (P08228 whole entry): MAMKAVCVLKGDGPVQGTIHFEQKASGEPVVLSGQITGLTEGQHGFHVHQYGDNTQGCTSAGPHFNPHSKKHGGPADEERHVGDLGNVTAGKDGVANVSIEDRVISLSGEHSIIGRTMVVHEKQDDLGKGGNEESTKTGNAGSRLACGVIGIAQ

[6] = cited from earlier work; remark: listed apart in the source
[7] = test system: A549 cells; conditions: cited from earlier work
[8] = test system: erythrocyte membrane; conditions: cited from earlier work
[9] = TLC densitometry, cited from earlier work
[10] = cited from earlier work; remark: listed apart in the source
[11] = physiological concentrations; cited from earlier work
[12] = Fowl; cited from earlier work
[13] = cited from earlier work; remark: listed apart in the source
[14] = room temperature; cited from earlier work
[15] = physiologic pH, does not auto-oxidize; cited from earlier work
[16] = animal experimental model of diabetes; cited from earlier work
[17] = rat; cited from earlier work
[18] = physiological concentrations; cited from earlier work; remark: listed apart in the source
[19] = test system: human platelets; conditions: human platelets in vitro; cited from earlier work
[20] = test system: isolated rabbit heart; conditions: cited from earlier work
[21] = Sheep; cited from earlier work
[22] = Pig; cited from earlier work
[23] = test system: spermatozoa; conditions: cited from earlier work
[24] = low concentrations; cited from earlier work
[25] = test system: isolated rat heart; conditions: 0.1 mM; cited from earlier work
[26] = test system: rat retina; conditions: NMDA, cited from earlier work
[27] = Rat, cited from earlier work
[28] = test system: erythrocytes; conditions: rats, administered in the diet; cited from earlier work
[29] = animal studies, in the diet; cited from earlier work
[30] = into the organs, principally the liver; cited from earlier work

In the case of C[N+](C)(C)[C@@H](Cc1c[nH]c(=S)[nH]1)C(=O)[O-] [Ergothioneine, ergothioneine], the “Concentration of LE in tissue” value ([1]; Heart) is given as 8.9 mgs/100 gm fresh tissue, the “Concentration of LE in tissue” value ([1]; Kidney) is given as 1.6 mgs/100 gm fresh tissue and the “Concentration of LE in tissue” value ([1]; Liver) is given as 0.9 mgs/100 gm fresh tissue. The “Concentration of LE in tissue” value ([1]; Lungs) was 0.6 mgs/100 gm fresh tissue, the “Concentration of LE in tissue” value ([1]; RBC) was 6.6 mgs/100 gm fresh tissue and the “Concentration of LE in tissue” value ([1]; Spleen) was 1.1 mgs/100 gm fresh tissue. The “Concentration of LE in tissue” value ([1]; Testes) was 0.0 mgs/100 gm fresh tissue, the “Concentration of l-ergothioneine in the blood” value (from here on “Concentration … in the blood”) [1] was 3-6 mg/100 ml blood and the “Concentration of LE in tissue” value ([2]; Cat, Heart) was 0.0 mgs/100 gm fresh tissue. The “Concentration of LE in tissue” value ([2]; Cat, Kidney) was 3.1 mgs/100 gm fresh tissue, the “Concentration of LE in tissue” value ([2]; Cat, Liver) was 2.7 mgs/100 gm fresh tissue and the “Concentration of LE in tissue” value ([2]; Cat, Lungs) was 0.8 mgs/100 gm fresh tissue. The “Concentration of LE in tissue” value ([2]; Cat, RBC) was 2.9 mgs/100 gm fresh tissue, the “Concentration of LE in tissue” value ([2]; Cat, Testes) was 0.0 mgs/100 gm fresh tissue and the “Concentration … in the blood” value ([2]; Cat) was 0.5-2 mg/100 ml blood. For the same compound, the Ergothioneine in brain ([2]; brains of cats) was 3.0 µg/g, the “NADPH-dependent enzymatic lipid peroxidation” value [3] was “inhibits” and the Glutathione reductase activity [4] was “markedly increased”. For the same compound, the “Cytosolic Cu/Zn SOD activity” value [5] was “no increased activity”, the “Sulfur label recovered in the urine as free sulfate” value ([6]; 35S-ergothioneine) was 35-65% and the “Dose recovered by urinary excretion” value ([6]; bolus injected, in approximately 6 hours) was 60%. The “Share of urine products identified as ergothioneine” value ([6]; bolus injected) was “About one-third”, the “Share of urine products identified as hercynine” value ([6]; bolus injected) was “About one-third” and the “H2O2 and TNF-alpha imposed oxidative stress in IL-8-CAT reporter system” value [7] was “inhibits”. For the same compound, the “Amount directly penetrating the erythrocyte membrane” value [8] was under 1%, the “Level in rat tissue” value ([9]; brain) was 0.41 mg/100 g and the “Level in rat tissue” value ([9]; kidney) was 1.58 mg/100 g. For the same compound, the “Level in rat tissue” value ([9]; liver) was 7.82 mg/100 g, the “Level in rat tissue” value ([9]; plasma) was 0.21 mg/100 g and the “Level in rat tissue” value ([9]; testicle) was 0.5 mg/100 g. The “Concentration of LE in the lens of the human eye” value (shortened to “Concentration … of the human eye”) ([10]; Hypermature cataract) was 60.8 mg LE/100 gm and 60.8 +/− 9.8 mg LE/100 gm, the “Concentration … of the human eye” value ([10]; Immature cortical cataract) was 79.6 mg LE/100 gm and 79.4 +/− 11.7 mg LE/100 gm and the “Concentration … of the human eye” value ([10]; Immature nuclear cataract) was 94.2 mg LE/100 gm and 94.2 +/− 7.3 mg LE/100 gm. The “Concentration … of the human eye” value ([10]; Mature cataract) was 71.7 mg LE/100 gm and 71.7 +/− 13.7 mg LE/100 gm, the “Concentration … of the human eye” value ([10]; Normal lens) was 115.7 mg LE/100 gm and 115.7 +/− 6.3 mg LE/100 gm and the “Inactivation of hydroxyl radical” value [11] was “potent diffusion-controlled inactivation”. The “Concentration … in the blood” value [12] was 2-10 mg/100 ml blood, the “Concentration … in the blood” value ([13]; Man) was 1-4 mg/100 ml blood and the “Levels in human blood cells” value ([13]; healthy males from Saudi Arabia) was 1-4 mg/100 mL. The Solubility limit [14] was 900 mM (≈ 206 mg/mL), the “Stability in aqueous solution” value [15] was “very stable in aqueous solution” and the “Developmental defects of embryos” value [16] was “reverse the developmental defects to almost that of the control group”. The Whole body half-life [17] was “approximately 30 days”, the “Protection of API against HOCl-induced inactivation” value [18] was “protect very efficiently” and the “CO2 production from pyruvate” value [19] was “increases in CO2 production from pyruvate”. The Production of lactate [19] was “decreased production of lactate”, the “Protection against ischemia-reperfusion injury” value [20] was “failed to protect” and the “Concentration … in the blood” value [21] was 2-6 mg/100 ml blood. The “Concentration … in the blood” value [22] was 3-27 mg/100 ml blood, the “Effect on spermatozoa viability and survival under hydrogen peroxide” value [23] was “counteracts the effects of hydrogen peroxide on spermatozoa viability and survival” and the Radioprotection in vitro [24] was “very potent radioprotector even at low concentrations”. For the same compound, the “Protection against reperfusion injury as measured by LDH release” value [25] was “protected the isolated rat heart against reperfusion injury”, the “Loss of nonganglion cells” value ([26]; rats treated with ergothioneine (43% without)) was 31% and the “Loss of ganglion cells” value ([26]; rats treated with ergothioneine (81% without)) was 44%. For the same compound, the “Ameloid Precursor Protein (APP)” value [26] was “significant decreases”, the “Concentration of LE in tissue” value ([27]; Heart) was 1.5 mgs/100 gm fresh tissue and the “Concentration of LE in tissue” value ([27]; Intestine) was 0.6 mgs/100 gm fresh tissue. For the same compound, the “Concentration of LE in tissue” value ([27]; Kidney) was 4.3 mgs/100 gm fresh tissue, the “Concentration of LE in tissue” value ([27]; Liver) was 13.3 mgs/100 gm fresh tissue and the “Concentration of LE in tissue” value ([27]; Lungs) was 1.5 mgs/100 gm fresh tissue. The “Concentration of LE in tissue” value ([27]; Muscle) was 0.7 mgs/100 gm fresh tissue, the “Concentration of LE in tissue” value ([27]; Plasma) was 0.0 mgs/100 gm fresh tissue and the “Concentration of LE in tissue” value ([27]; RBC) was 10.4 mgs/100 gm fresh tissue. The “Concentration of LE in tissue” value ([27]; Spleen) was 1.1 mgs/100 gm fresh tissue, the “Concentration of LE in tissue” value ([27]; Stomach) was 0.4 mgs/100 gm fresh tissue and the “Concentration of LE in tissue” value ([27]; Testes) was 0.0 mgs/100 gm fresh tissue. For the same compound, the “Concentration … in the blood” value [27] was 1-6 mg/100 ml blood, the “Erythrocyte lactate level on starvation” value [28] was “prevented a 40% starvation-induced diminution” and the “Dietary level producing measurable changes in circulating whole blood levels” value [29] was 1 part per 100,000. For the same compound, the “Disappearance from the plasma after intravenous administration” value [30] was “rapid disappearance”.
